Here are results for 26 molecules from PubChem BioAssay (NCI).

SMILES strings stand for the structures. “And” between values parts separate entries of the source, which are not always exact repeats. Equal entries are not always repeated.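 1) Cells in 96-well plates. 2) Compound, 48 h, 5 concentrations. 3) Linear interpolation between surrounding doses. 4) Unreached endpoint = highest concentration. Abbreviation: GI50, concentration required for 50% inhibition of growth. Definition used: TGI = concentration required for complete inhibition of growth.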

Among the test systems are BT-549 breast; T-47D breast; MCF7 breast; MDA-MB-231 breast.
Holding throughout (assay): inhibition of tumour cell growth, NCI panel, 48 h

Regarding `NC(=O)c1nc(-c2c(F)cccc2Cl)oc1Nc1ccc(C(=O)N2CCOCC2)cc1`, the GI50 is 3.62 µM in the assay with BT-549 breast, 3.46 µM with T-47D breast, 0.596 µM in the assay with MCF7 breast and 1.86 µM with MDA-MB-231 breast. The TGI was 54.6 µM in the assay on BT-549 breast, 62.7 µM with T-47D breast, greater than 100 µM with MCF7 breast and greater than 100 µM in the assay with MDA-MB-231 breast.
Consider `S=C(Sc1ccc(Cl)cc1)Sc1ccc(Cl)cc1`, for which the GI50 in the assay on BT-549 breast was 1.21 µM; in the assay on T-47D breast, 1.94 µM; in the assay with MCF7 breast, 2.38 µM; in the assay with MDA-MB-231 breast it was 2.19 µM. In addition, the TGI was 3.16 µM in the assay with BT-549 breast, 5.72 µM with T-47D breast, 7.59 µM in the assay with MCF7 breast and 4.36 µM with MDA-MB-231 breast.
In the case of `O=C(CI)NC(=O)NC(=O)NCc1ccccc1`, the GI50 was 2.8 µM with BT-549 breast, 2.48 µM with T-47D breast, 2.28 µM with MCF7 breast and 3.9 µM in the assay on MDA-MB-231 breast. Further, the TGI in the assay with BT-549 breast came to 8.17 µM; with T-47D breast it was 6.7 µM; in the assay with MCF7 breast, 8.59 µM; with MDA-MB-231 breast it was 15.7 µM.
Regarding `CCc1ccc(Oc2c(-c3ccc(OCc4ccc(Cl)cc4)cc3O)nn(C)c2C(F)(F)F)cc1`, the GI50 in the assay on BT-549 breast was 1.56 µM; with T-47D breast, 0.248 µM; in the assay on MCF7 breast, 0.339 µM; in the assay on MDA-MB-231 breast, 1.19 µM. Moreover, the TGI turned out to be 3.34 µM in the assay with BT-549 breast, 0.936 µM in the assay on T-47D breast, 1.9 µM in the assay on MCF7 breast and 2.85 µM in the assay on MDA-MB-231 breast.
`CCN(CC)CCNc1n[n+]([O-])c2cc([N+](=O)[O-])ccc2[n+]1[O-]`: the TGI is 8.85 µM and 8.27 µM and 3.64 µM with BT-549 breast; 3.22 µM in the assay on T-47D breast; 1.91 µM and 2.17 µM and 1.99 µM with MCF7 breast; 6.33 µM and 3.15 µM and 4.26 µM with MDA-MB-231 breast. For the same molecule, the GI50 was 1.34 µM and 0.381 µM and 0.779 µM in the assay on T-47D breast; 0.274 µM and 0.11 µM and 0.136 µM in the assay with MCF7 breast; 1.76 µM and 0.425 µM and 0.975 µM in the assay on MDA-MB-231 breast.
Take `CCOC(=O)c1cc(C(=O)c2ccc(OC)c(OC)c2)n2c1ccc1ccc3cccnc3c12`: the GI50 in the assay on BT-549 breast is 1.94 µM; in the assay on T-47D breast, 2.37 µM; with MCF7 breast it was 2.25 µM; in the assay with MDA-MB-231 breast it was 2.66 µM. Besides, the TGI in the assay with BT-549 breast, with T-47D breast, with MCF7 breast and with MDA-MB-231 breast was greater than 100 µM throughout.
As for `C[C@]12CCc3nc(Nc4ccc(O)cc4)sc3C1=CC[C@@H]1[C@@H]2CC[C@]2(C)/C(=N/NC(N)=S)CC[C@@H]12`, the GI50 is 1.47 µM in the assay with BT-549 breast, 1.51 µM with T-47D breast, 1.15 µM with MCF7 breast and 1.88 µM in the assay on MDA-MB-231 breast. For the same molecule, the TGI was determined as 3.99 µM in the assay on BT-549 breast, 3.57 µM with T-47D breast, 3.01 µM with MCF7 breast and 4.79 µM in the assay on MDA-MB-231 breast.
For the molecule `COc1cc2c(c3c1c(=O)c1ccccc1n3C)C=C([N+](=O)[O-])C(C)(C)O2`, the TGI is greater than 100 µM with T-47D breast, greater than 100 µM in the assay with MCF7 breast and greater than 31.6 µM in the assay on MDA-MB-231 breast.
Regarding `CO[C@H]1C(=O)[C@]2(C)[C@@H](OC)C[C@H]3OC[C@@]3(OC(C)=O)[C@H]2[C@H](OC(=O)c2ccccc2)[C@]2(O)C[C@H](OC(=O)[C@H](O)[C@@H](NC(=O)OC(C)(C)C)c3ccccc3)C(C)=C1C2(C)C`, the GI50 is less than 0.01 µM in the assay with BT-549 breast, less than 0.01 µM in the assay with T-47D breast, less than 0.01 µM in the assay with MCF7 breast and less than 0.0183 µM in the assay on MDA-MB-231 breast. For the same molecule, the TGI in the assay on BT-549 breast was 26.8 µM; with T-47D breast it was greater than 100 µM; in the assay on MCF7 breast, 20.5 µM; in the assay with MDA-MB-231 breast, greater than 53.6 µM.
Consider `O=C1Nc2ccc(-c3cccnc3)cc2/C1=C/c1cc(Br)c(O)c(Br)c1`, for which the GI50 is 6.05 µM with BT-549 breast, 10.6 µM in the assay on T-47D breast, 11.4 µM in the assay on MCF7 breast and 7.41 µM in the assay on MDA-MB-231 breast. The TGI in the assay with BT-549 breast was greater than 18.9 µM; with T-47D breast, greater than 25 µM; in the assay with MCF7 breast, greater than 25 µM; with MDA-MB-231 breast, greater than 25 µM.
On to `CCN(CC)CCCC(Nc1c2ccc(Cl)cc2nc2ccc(OC)cc12)c1ccc(Cl)cc1` (configuration not stated), for which the GI50 in the assay with BT-549 breast was 1.7 µM; with T-47D breast, 1.85 µM; in the assay on MCF7 breast it was 0.348 µM; in the assay with MDA-MB-231 breast, 0.67 µM. Further, the TGI with BT-549 breast worked out at 3.47 µM; in the assay with T-47D breast, 3.96 µM; in the assay on MCF7 breast it was 1.43 µM; in the assay on MDA-MB-231 breast it was 2.24 µM.
As to `Cc1ccccc1Nc1cc(O)c2c(=O)cc(-c3ccccc3)oc2c1`, the GI50 in the assay with BT-549 breast was 4.03 µM; in the assay with T-47D breast, 2.96 µM; in the assay on MCF7 breast it was 0.821 µM; in the assay on MDA-MB-231 breast it was 3.58 µM. Besides, the TGI with BT-549 breast, in the assay on T-47D breast, in the assay with MCF7 breast and in the assay with MDA-MB-231 breast was greater than 100 µM each time.
`CC(C)(C)O/N=C/c1cc(NC(=S)c2ccccc2)ccc1Cl`: the TGI in the assay with BT-549 breast is 35.1 µM; in the assay on T-47D breast, 62.5 µM; in the assay on MCF7 breast, greater than 100 µM; in the assay with MDA-MB-231 breast, 40.3 µM.
`O=C1c2cccc3c(N4CCOCC4)ccc(c23)C(=O)N1CCN1CCN(CCCCCN2CCN(CCN3C(=O)c4cccc5c(N6CCOCC6)ccc(c45)C3=O)CC2)CC1`: the GI50 with BT-549 breast is greater than 100 µM; in the assay with T-47D breast it was greater than 100 µM; in the assay on MCF7 breast, 77.6 µM; in the assay on MDA-MB-231 breast, greater than 100 µM. Moreover, the TGI with BT-549 breast, with T-47D breast, in the assay with MCF7 breast and with MDA-MB-231 breast was greater than 100 µM each time.
For `COc1cc([C@@H]2c3cc4c(cc3[C@H](SC(=N)N)[C@H]3COC(=O)[C@H]23)OCO4)cc(OC)c1OC`, the GI50 in the assay on BT-549 breast is 2.3 µM; in the assay with T-47D breast, 66.7 µM; with MCF7 breast it was 0.0586 µM; with MDA-MB-231 breast it was 0.388 µM. Further, the TGI in the assay on T-47D breast, with MCF7 breast and in the assay with MDA-MB-231 breast was greater than 100 µM in each case.
As for `NC1=NC(c2ccccc2Cl)c2c(n[nH]c2N)N1` (configuration not stated), the GI50 was 27.4 µM in the assay on BT-549 breast, 26.1 µM in the assay on T-47D breast, 7.09 µM in the assay with MCF7 breast and 5.95 µM in the assay with MDA-MB-231 breast. For the same molecule, the TGI in the assay with BT-549 breast, in the assay with T-47D breast, with MCF7 breast and in the assay with MDA-MB-231 breast was greater than 100 µM in each case.
As to `Nc1ncnc2c1c(-c1ccc(Oc3ccccc3)cc1)nn2CC1SSCC1O` (configuration not stated), the GI50 in the assay with BT-549 breast was 7.11 µM; in the assay with T-47D breast it was 0.653 µM; in the assay on MCF7 breast, 1.44 µM; with MDA-MB-231 breast, 5.36 µM. Besides, the TGI in the assay on BT-549 breast worked out at 17.1 µM; in the assay with T-47D breast, 1.85 µM; with MCF7 breast, 7.85 µM; in the assay with MDA-MB-231 breast it was 16.8 µM.
Regarding `Cc1ccc2ccc3c4ccccc4ccc3c2c1`, the GI50 in the assay on BT-549 breast is 30.9 µM; in the assay on T-47D breast it was 23 µM; with MCF7 breast it was 15.5 µM; in the assay with MDA-MB-231 breast it was 17.4 µM. For the same molecule, the TGI in the assay on BT-549 breast was greater than 100 µM; in the assay with T-47D breast, 74.6 µM; with MCF7 breast, 39.3 µM; in the assay on MDA-MB-231 breast, 47.9 µM.
With `Oc1cn(-c2ccc(Cl)cc2)nc1-c1n[nH]c(=S)n1-c1ccc(F)cc1`, the GI50 with BT-549 breast was 16.5 µM; in the assay with T-47D breast, greater than 100 µM; in the assay on MCF7 breast it was 24.8 µM; with MDA-MB-231 breast, 10.2 µM. Besides, the TGI in the assay on BT-549 breast is 56.9 µM; with T-47D breast, greater than 100 µM; in the assay with MCF7 breast it was greater than 100 µM; in the assay on MDA-MB-231 breast, 60.1 µM.
Regarding `N=C(N)n1cc(/C=N/N=C(N)N)cn1`, the TGI in the assay on BT-549 breast, with T-47D breast, in the assay on MCF7 breast and in the assay with MDA-MB-231 breast was greater than 100 µM in each case.
As to `CCOC(=O)c1cn(C)c2c(OC)c3ccccc3c(OC)c2c1=O`, the GI50 was 43 µM in the assay on BT-549 breast, 12.4 µM with T-47D breast, 22.9 µM with MCF7 breast and 32.6 µM in the assay with MDA-MB-231 breast. The TGI with BT-549 breast was greater than 100 µM; in the assay with T-47D breast it was 42.9 µM; in the assay with MCF7 breast it was 47.8 µM; with MDA-MB-231 breast, greater than 100 µM.
As to `COc1cccc(-c2cc(=O)c3cc(N4CCN(C)CC4)ccc3[nH]2)c1`, the GI50 in the assay on MCF7 breast was 3.72 µM; in the assay with MDA-MB-231 breast, 2.24 µM. Besides, the TGI with MCF7 breast is greater than 100 µM; with MDA-MB-231 breast it was 9.89 µM and 7.13 µM.
Take `CC(=O)C1(C(=O)C(=[N+]=[N-])S(=O)(=O)c2ccccc2)CC1`: the TGI with BT-549 breast, with MCF7 breast and in the assay with MDA-MB-231 breast was greater than 100 µM throughout.
`COc1ccc(-c2cnc(-c3ccncc3-c3cccc(OC)c3)o2)cc1`: the GI50 in the assay with BT-549 breast is 0.154 µM; in the assay on T-47D breast, 2.58 µM; in the assay on MCF7 breast, 0.113 µM; in the assay on MDA-MB-231 breast, 0.0591 µM. Moreover, the TGI in the assay with BT-549 breast is 13.9 µM; in the assay with T-47D breast, 35.1 µM; with MCF7 breast, 12.2 µM; with MDA-MB-231 breast, 19.3 µM.
Consider `OCC1OC(OC2(CO)OC(CO)C(O)C2O)C(O)C(O)C1O` (configuration not stated), for which the GI50 with BT-549 breast, in the assay on T-47D breast and with MDA-MB-231 breast was greater than 100 µM in each case. Moreover, the TGI with BT-549 breast, in the assay with T-47D breast and in the assay with MDA-MB-231 breast was greater than 100 µM in each case.
As to `[O-][n+]1c2cccc(O)c2[n+]([O-])c2cccc(O)c21`, the TGI in the assay with BT-549 breast, in the assay with T-47D breast and with MCF7 breast was greater than 100 µM each time.
